Laboratory results reported in the NIST ThermoML archive (doi:10.1021/je700020t).
± gives the expanded uncertainty stated by the source.

Settings: 101.33 kPa, Liquid

Row | SMILES | mass density (253.15 K) | mass density (263.15 K) | mass density (273.15 K) | mass density (283.15 K) | mass density (293.15 K) | mass density (298.15 K) | mass density (323.15 K) | mass density (343.15 K) | mass density (363.15 K) | mass density (383.15 K) | mass density (324.15 K) | mass density (358.15 K)
1 | CCCCI [1-iodobutane] | 1670.9 ± 3.3 kg/m3 | 1655.2 ± 3.2 kg/m3 | 1639.1 ± 3.1 kg/m3 | 1623.7 ± 3 kg/m3 | 1607.6 ± 2.9 kg/m3 | 1599.8 ± 2.9 kg/m3 | 1558.7 ± 2.9 kg/m3 | 1525.7 ± 2.9 kg/m3 | 1492 ± 2.9 kg/m3 | 1457.2 ± 2.9 kg/m3 | – | –
2 | CCCI [1-iodopropane] | 1820.9 ± 1.8 kg/m3 | 1802.5 ± 1.7 kg/m3 | 1784.5 ± 1.7 kg/m3 | 1765.9 ± 1.6 kg/m3 | 1747.8 ± 1.5 kg/m3 | – | – | 1652.2 ± 1.6 kg/m3 | – | – | 1688.3 ± 1.6 kg/m3 | 1622.3 ± 1.7 kg/m3
